{
  "source": "patent US11793781B2",
  "about": "“Autoimmune disorder treatment using RXR agonists” (Io Therapeutics, Inc., priority 2011, dated 2023)",
  "key": {"[1]": {"tested_on": "Naive CD4+ CD25− FoxP3− cells", "assay": "Treg cell differentiation conditions: Foxp3 and α4β7 expression", "format": "cell-based, mouse", "description": "To determine whether a RXR agonist can induce Treg cell differentiation, the ability of an RXR agonist to promote Treg cell differentiation under Treg cell differentiation conditions was assessed by monitoring Foxp3 and α4β7 expression. Naive CD4^+ CD25^− FoxP3^− cells were purified from a Foxp3-GFP mouse using flow cytometry by sorting and isolating based upon a GFP^− phenotype. These cells were then cultured under Treg cell differentiation conditions by treating the cells with αCD3 and αCD28 polyclonal antibodies in the presence of IL-2 and TGF-β. […] FIG. 1A. […] FIG. 1B."}, "[2]": {"tested_on": "Naive CD4+ CD25− FoxP3− cells", "assay": "Th17 cell differentiation conditions: Foxp3 and IL-17A expression", "format": "cell-based, mouse", "conditions": "0, 1, 10, 100 nM, as concentration increased", "description": "To determine whether a RXR agonist can regulate T cell differentiation, the ability of an RXR agonist to promote Treg cell differentiation and inhibit Th17 cell differentiation under Th17 cell differentiation conditions was assessed by monitoring Foxp3 and IL-17A expression. Naive CD4^+ CD25^− FoxP3^− cells were purified from a Foxp3-GFP mouse using flow cytometry by sorting and isolating based upon a GFP^− phenotype. […] See, e.g., Elias, et al., Retinoic Acid Inhibits Th17 Polarization and Enhances FoxP3 Expression through a Stat-3/Stat-5 Independent Pathway, Blood 111(3): […] (2008). […] FIG. 2A. […] FIG. 2B."}, "[3]": {"target": "T1, RXRα (Homo sapiens, UniProt P19793)", "T1 sequence (P19793 1-462)": "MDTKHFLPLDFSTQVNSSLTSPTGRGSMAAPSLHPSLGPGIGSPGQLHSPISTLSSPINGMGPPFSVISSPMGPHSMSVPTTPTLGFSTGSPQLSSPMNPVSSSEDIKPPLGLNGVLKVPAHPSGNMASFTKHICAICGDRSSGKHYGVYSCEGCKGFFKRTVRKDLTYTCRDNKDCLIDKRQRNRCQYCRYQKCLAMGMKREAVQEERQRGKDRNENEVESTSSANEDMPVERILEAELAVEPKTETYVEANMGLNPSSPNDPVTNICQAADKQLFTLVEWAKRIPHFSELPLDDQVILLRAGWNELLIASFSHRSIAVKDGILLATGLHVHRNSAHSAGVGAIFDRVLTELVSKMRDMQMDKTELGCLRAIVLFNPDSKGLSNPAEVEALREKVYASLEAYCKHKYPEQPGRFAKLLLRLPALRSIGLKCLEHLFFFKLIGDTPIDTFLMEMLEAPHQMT", "assay": "RXR homodimer transactivation assay in CV-1 cells (RXRE-tk-Luc)", "format": "cell-based", "conditions": "20 hours, luciferase", "description": "For transactivation assays assessing RXR homodimer signaling, CV-1 cells were transfected with 1) an expression construct including a full length RXRα, RXRβ, or RXRγ; and 2) a rCRBPII/RXRE-tk-Luc reporter construct that included RXR homodimer-specific RXRE/DR1 responsive element linked to a luciferase gene. For transactivation assays assessing RAR/RXR heterodimer signaling, CV-1 cells were transfected with 1) an expression construct comprising a fusion protein including an estrogen receptor (ER) DNA binding domain linked to the ligand binding domain of RARα, RARβ, or RARγ and 2) a ERE-tk-Luc reporter construct that included an estrogen receptor responsive element linked to a luciferase gene. […] Data are mean values±SE from five independent experiments."}, "[4]": {"target": "T2, RXRγ (Homo sapiens, UniProt P48443)", "T2 construct": "an expression construct including a full length RXRα, RXRβ, or RXRγ; expressed in transfected cells; host or cells: CV-1 cells", "T2 sequence (P48443 1-463)": "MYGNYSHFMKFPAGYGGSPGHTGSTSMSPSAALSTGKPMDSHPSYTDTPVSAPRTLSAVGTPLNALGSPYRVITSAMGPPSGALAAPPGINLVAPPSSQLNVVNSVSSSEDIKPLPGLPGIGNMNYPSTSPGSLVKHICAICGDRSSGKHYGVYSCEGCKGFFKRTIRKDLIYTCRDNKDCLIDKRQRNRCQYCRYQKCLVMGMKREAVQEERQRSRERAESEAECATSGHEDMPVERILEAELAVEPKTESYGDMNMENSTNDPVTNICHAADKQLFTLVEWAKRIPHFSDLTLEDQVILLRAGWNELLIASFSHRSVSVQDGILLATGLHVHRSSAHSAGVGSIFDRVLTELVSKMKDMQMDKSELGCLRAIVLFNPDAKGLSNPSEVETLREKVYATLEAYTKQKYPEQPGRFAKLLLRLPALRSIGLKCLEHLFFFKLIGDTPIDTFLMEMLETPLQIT", "assay": "RXR homodimer transactivation assay in CV-1 cells (RXRE-tk-Luc)", "format": "cell-based", "experimental": "To determine whether a RXR agonist can mediate its effects via an RXRα receptor homodimers, RXRβ receptor homodimers, RXRγ receptor homodimers, or any combination thereof, or the corresponding RAR/RXR heterodimers, receptor-mediated transactivation assays were performed. […] Data are mean values±SE from five independent experiments."}, "[5]": {"tested_on": "RXRs and RARs", "assay": "Functional transactivation assays, RXRs compared with RARs", "format": "cell-based", "experimental": "To determine whether a RXR agonist can mediate its effects via an RXRα receptor homodimers, RXRβ receptor homodimers, RXRγ receptor homodimers, or any combination thereof, or the corresponding RAR/RXR heterodimers, receptor-mediated transactivation assays were performed. For transactivation assays assessing RXR homodimer signaling, CV-1 cells were transfected with 1) an expression construct including a full length RXRα, RXRβ, or RXRγ; and 2) a rCRBPII/RXRE-tk-Luc reporter construct that included RXR homodimer-specific RXRE/DR1 responsive element linked to a luciferase gene. For transactivation assays assessing RAR/RXR heterodimer signaling, CV-1 cells were transfected with 1) an expression construct comprising a fusion protein including an estrogen receptor (ER) DNA binding domain linked to the ligand binding domain of RARα, RARβ, or RARγ and 2) a ERE-tk-Luc reporter construct that included an estrogen receptor responsive element linked to a luciferase gene. The ER-RAR fusion proteins provided an accurate readout of only the transfected ER-RAR. […] Data are mean values±SE from five independent experiments."}, "[6]": {"tested_on": "LXR/RXR", "assay": "Permissive RXR heterodimer transactivation", "format": "cell-based", "conditions": "appropriate receptor and reporter constructs", "description": "(§1) This difference represents >2,000-fold selectivity for RXRs over RARs in functional transactivation assays. […] FIG. 4. […] In this regard, RXR agonist 194204 is distinct from other RXR agonists."}, "[7]": {"tested_on": "PPAR/RXR", "assay": "Permissive RXR heterodimer transactivation", "format": "cell-based", "conditions": "appropriate receptor and reporter constructs", "description": "as §1"}, "[8]": {"tested_on": "FXR/RXR", "assay": "Permissive RXR heterodimer transactivation", "format": "cell-based", "conditions": "appropriate receptor and reporter constructs"}, "[9]": {"tested_on": "experimental autoimmune encephalomyelitis (EAE)", "assay": "EAE in C57BL/6 (B6) mice (MOG peptide)", "format": "in vivo", "conditions": "50 ug i.p. every other day from day 7, FIG. 5", "description": "Mice were also given 200 ng of pertussis toxin in PBS administered by inter-peritoneal (i.p.) injection on the same day as MOG emulsion injection (day 0) and 2 days later (day 2). […] Mice were scored using the following scale: 0—Mice have no disease, 1—Mice have distal limp tail or rear leg weakness (paresis), 1.5—Mice have distal limp tail and rear leg weakness, 2—Mice have complete limp tail and rear leg weakness, 2.5—Mice have complete limp tail and weakness in both rear legs, 3—Mice have complete limp tail and paralysis in both rear legs, 3.5—Mice have complete limp tail, paralysis in both rear legs, and forelimb weakness. Mice receiving a score of 3.5 were immediately euthanized."}, "[10]": {"tested_on": "CNS infiltrating leukocytes", "assay": "CNS infiltrating cells in EAE B6 mice (FACS)", "format": "in vivo, C57BL/6 (B6) mice", "conditions": "day 20, versus vehicle control, FIG. 6", "description": "To determine whether a RXR agonist can reduce central nervous system (CNS) infiltrating cells, C57BL/6 (B6) mice were treated as described in Example 6. On day 20 after immunization, mice were sacrificed and perfused with phosphate buffered saline (PBS). Brain and spinal cord tissue was isolated, digested with DNase and Liberase DL (Roche Diagnostics, Indianapolis, Ind.) for 30 minutes, and homogenized through 70 micron nylon mesh filters. Resulting cells were placed over a Percoll gradient to remove myelin. The remaining cells (microglia and CNS infiltrating cells) were counted, stained for molecules of interest, and run on a flow cytometer. Based on the frequencies obtained by FACS of these cell populations, total cell numbers of CNS infiltrating leukocytes expressing CD45, including CD4^+ T cells and CD11c^+ CD11b^+ myeloid dendritic cells (DC), were calculated."}, "[11]": {"tested_on": "experimental autoimmune encephalomyelitis (EAE)", "assay": "EAE in SJL mice (PLP peptide)", "format": "in vivo", "description": "To determine whether a RXR agonist can attenuate multiple sclerosis, SJL mice were immunized to induce EAE by s.c. injection at the base of their spine with 200 uL of adjuvant containing 200 ug proteolipid proteins (139-151) (PLP peptide; Peptides International, Louisville, Ky.) and 400 ug of non-viable M. tuberculosis H37 desiccate emulsified in a mixture of incomplete Freund's adjuvant and PBS. Mice were also given 150 ng of pertussis toxin in PBS i.p. on the same day as PLP emulsion injection and 2 days later. […] Mice were scored using the scale described in Example 6."}, "[12]": {"conditions": "50 ug i.p. every other day from day 7, FIG. 7"}},
  "data": [
    {"smiles": "CC(/C=C/[C@@H]1C[C@]1(C)c1ccc2c(c1)C(C)(C)CCC2(C)C)=C\\C(=O)O", "note": "[RXR agonist 194204, 3,7-dimethyl-6(S),7(S)-methano,7-[1,1,4,4-tetramethyl-1,2,3,4-tetrahydronaphth-7-yl]2(E),4(E) heptadienoic acid]", "values": [
      {"measurement": "Foxp3+ T cells induced", "setting": "[1]; Treg conditions (αCD3, αCD28, IL-2, TGF-β), concentrations of 1 nM or higher, FIG. 1A", "value": "~100", "unit": "%"},
      {"measurement": "α4β7 expression", "setting": "[1]; Treg conditions, 0.1, 1.0, 10 nM, FIG. 1B", "value": "induced expression of α4β7"},
      {"measurement": "Foxp3 expression", "setting": "[2]; FIG. 2A", "value": "Foxp3 expression increased"},
      {"measurement": "IL-17A expression", "setting": "[2]; FIG. 2B", "value": "IL-17A expression decreased"},
      {"measurement": "Efficacy (% of 1 μM 194204) RXRα", "setting": "[3]", "value": "100 % of 1 μM 194204"},
      {"measurement": "Efficacy (% of 1 μM 194204) RXRγ", "setting": "[4]", "value": "0.09 ± 0.01 100 % of 1 μM 194204"},
      {"measurement": "more potent in activating RXR receptors rather than RAR receptors", "setting": "[5]; FIG. 4", "value": "> 1,000 fold"},
      {"measurement": "activity at RARs", "setting": "[5]; at ≥1 μM", "value": "minimal activity"},
      {"measurement": "transactivation of permissive RXR heterodimer LXR/RXR", "setting": "[6]", "value": "not to transactivate"},
      {"measurement": "transactivation of permissive RXR heterodimer PPAR/RXR", "setting": "[7]", "value": "not to transactivate"},
      {"measurement": "transactivation of permissive RXR heterodimer FXR/RXR", "setting": "[8]", "value": "not to transactivate"},
      {"measurement": "symptoms of EAE (disease severity score)", "setting": "[9]", "value": "significantly reduces the symptoms of EAE"},
      {"measurement": "time course of efficacy", "setting": "[9]", "value": "observed after the first administration (day 7) and maintained throughout the course of the study (day 20)"},
      {"measurement": "infiltration of CD4+ cells into the CNS", "setting": "[10]", "value": "significant reduction"},
      {"measurement": "infiltration of CD11c+ CD11b+ cells (myeloid DC) into the CNS", "setting": "[10]", "value": "significant reduction"},
      {"measurement": "symptoms of EAE (disease severity score)", "setting": "[11]; [12]", "value": "significantly reduces the symptoms of EAE"},
      {"measurement": "time course of efficacy", "setting": "[11]; [12]", "value": "observed after the second administration (day 8) and maintained throughout the course of the study (day 14)"},
      {"measurement": "Disease Incidence", "setting": "[11]; 50 ug i.p. every other day from day 7, mice affected/group", "value": "4/6"},
      {"measurement": "Death from Disease", "setting": "[11]; 50 ug i.p. every other day from day 7, mice/group", "value": "0/6"},
      {"measurement": "Mean Maximum Score", "setting": "[11]; 50 ug i.p. every other day from day 7, scale 0-3.5", "value": "1.5 ± 1.4"}
    ]}
  ]
}
